Patent US20120114823A1, “Feed Additive For Improved Pigment Retention” (TROUW INTERNATIONAL B.V., priority 2009, published 2012)
Like-named read-outs stand apart in the source and are kept apart here.

How the values were obtained:
[1] = system: rainbow trout; conditions: rainbow trout fed two months; feed with 80 ppm astaxanthin, alone or with 160 ppm proantocyanidin (0.1% KPA-F); cited from earlier work
[2] = system: rainbow trout; conditions: oral via feed; cited from earlier work
[3] = system: sea bream; conditions: cited from earlier work
[4] = system: salmon (S. salar); experiment: Feeding test with ferulic acid in astaxanthin feed, retention of astaxanthin in fish muscle (Example 2); type: in vivo, Salmo salar
Procedure: The test was carried out with salmon (S. salar) from May 4th to August 20th. The test was carried out in vessels having a diameter of 1 metre. The vessels were filled with seawater and the water temperature varied between 8.3 and 11.8° C. in the period. There were 30 fish in each vessel having a mean weight of 0.2 kg at the start. The control group consisted of two vessels per diet, while the test group consisted of one vessel at medium inclusion of ferulic acid and two vessels per diet at low inclusion of ferulic acid.
The feed had the following main component composition: 44.5% protein; 28.2% fat; 7.6% water and 7.2% ash.
The test feed had the same composition as shown in table 2 and had in addition added ferulic acid as dry powder in meal mix before extrusion. Ferulic acid was added at two levels: low and medium, where the levels are defined as in example 1.
Each feed was formulated with two levels of astaxanthin, 20 and 40 mg/kg.
At the termination of the test the fish weighed 0.7 kg as an average. […] The fish were filleted and the fillet analysed for astaxanthin. Thirty fish per vessel were analysed individually with NIR.

[5] = system: salmon (S. salar); experiment: Feeding test with gallic acid in astaxanthin feed, retention of astaxanthin in fish muscle (Example 1); type: in vivo, Salmo salar; conditions: for retention of astaxanthin in fish muscle: 5.5 months
Procedure: The test was carried out on salmon (S. salar) over a 5.5-month period between November 11 and May 5. The test was carried out in vessels having a diameter of 1 metre. The vessels were filled with seawater and the water temperature varied between 8 and 12° C. in the period. There were 34-35 fish in each vessel. Mean weight at start was 118 g. The control group consisted of three vessels, while each test group consisted of one vessel.
The feeds had the following main component composition: 43.5% protein; 27.7% fat; 7.8% water and 8.0% ash.
There was produced feed having three different levels of astaxanthin, 15, 30 and 45 mg astaxanthin/kg respectively, both of the control feeds and the test feeds, by that different amounts of Carophyll Pink were added to the meal mixture before extrusion.
Adding gallic acid into the meal mix to the same recipe as the control feeds provided the test feeds. Gallic acid was added in four levels to the test feeds, low, medium, high and very high, respectively. Low level corresponds to an inclusion level of between 10 and 75 ppm, represented in the examples with an inclusion level of 15 ppm, medium level corresponds to an inclusion level of between 76 and 750 ppm, represented in the examples with an inclusion level of 400 ppm, high level corresponds to an inclusion level of between 751 and 1500 ppm, represented in the example with an inclusion level of 1200 ppm, and very high level corresponds to an inclusion level of over 1500 ppm, represented in the example with an inclusion level of 3600 ppm.
At the termination of the test the fish weighed in average 557 g. SGR was between 0.84%/d and 0.89%/d. The fish were filleted and the fillets were analysed for chemical astaxanthin in duplicates of pooled samples of fillets. Astaxanthin was analysed with HPLC according to a method developed by Roche with modifications.

## CC1=C(/C=C/C(C)=C/C=C/C(C)=C/C=C/C=C(C)/C=C/C=C(C)/C=C/C2=C(C)C(=O)C(O)CC2(C)C)C(C)(C)CC(O)C1=O (stereo not drawn) [astaxanthin, 3,3′-dihydroxy β,β-carotene-4,4′-dion]
[1]
  chemical content of astaxanthin in the muscle at the end of the experiment: 6.57 ppm
[2]
  share of added astaxanthin in the feed deposited in the fish meat: up to 15%

## COc1cc(C=CC(=O)O)ccc1O [ferulic acid, 3-(4-hydroxy-3-metoxyphenol)prop-2-enoic acid]
[3]; 1000 ppm ferulic acid
  increase in the level of astaxanthin in fish skin: mild increase
[3]; only 100 ppm ferulic acid
  increase in the level of astaxanthin in fish skin: no increase
[4]; low level of ferulic acid (15 ppm), feed contained less than 20 ppm of astaxanthin
  effect on the retention of astaxanthin: favourable effect on the retention of astaxanthin
[4]; medium level of ferulic acid (400 ppm), feed contained more than 30 ppm of astaxanthin
  effect on the retention of astaxanthin: favourable effect on the retention of astaxanthin

## O=C(O)c1cc(O)c(O)c(O)c1 [gallic acid, 3,4,5-hydroxybenzoic acid]
[5]; astaxanthin content in the feeds approx. 40 ppm
  retention of astaxanthin versus control: little difference in the retention
[5]; high inclusion levels of gallic acid in feed (751-1500 ppm, represented by 1200 ppm)
  retention of astaxanthin in fish muscle: hamper the retention of astaxanthin
[5]; lowest inclusion level of gallic acid (15 ppm) compared with medium level (400 ppm)
  effect on the retention of astaxanthin: equally good effect on the retention of astaxanthin as a medium level
[5]; very high level of gallic acid in feed (over 1500 ppm, represented by 3600 ppm)
  retention of astaxanthin in fish muscle: worse retention than at the other tested levels
